# Biological target: T1, TGF-beta receptor type-1 (Homo sapiens, UniProt P36897)
# T1 sequence (P36897 whole entry): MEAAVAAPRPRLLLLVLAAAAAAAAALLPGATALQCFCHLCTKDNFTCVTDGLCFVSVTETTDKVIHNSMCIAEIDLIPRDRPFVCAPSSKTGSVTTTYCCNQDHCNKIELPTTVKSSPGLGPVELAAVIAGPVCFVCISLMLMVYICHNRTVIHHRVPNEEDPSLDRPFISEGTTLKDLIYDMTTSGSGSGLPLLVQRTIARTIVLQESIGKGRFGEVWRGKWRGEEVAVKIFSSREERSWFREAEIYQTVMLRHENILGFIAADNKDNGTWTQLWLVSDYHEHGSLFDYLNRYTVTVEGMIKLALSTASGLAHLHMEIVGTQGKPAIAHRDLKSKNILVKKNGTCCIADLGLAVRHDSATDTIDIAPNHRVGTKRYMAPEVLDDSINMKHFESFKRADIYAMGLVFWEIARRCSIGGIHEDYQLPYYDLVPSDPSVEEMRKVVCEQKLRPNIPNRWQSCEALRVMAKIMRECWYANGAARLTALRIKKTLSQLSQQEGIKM
# Assay: In Vitro Assay
# Method: Briefly, the kinase reaction was performed by incubating 2.6 nM of the purified, commercially available human ALK5 (recombinant TGF β1 N-term GST-tagged, 80-end), a final concentration of TGFβ1 peptide 94.5 μM (Promega, T36-58) and ultra-pure ATP (Promega V915B). The ATP concentration was set at the Km value (concentration of substrate which permits the enzyme to achieve half maximal velocity (Vmax)) of ALK5 (5 μM). All reactions/incubations were performed at 25° C. Compound and ALK5 kinase were mixed and incubated for 15 mins. Reactions were initiated by addition of ATP at a final concentration in the assay of 0.83 μM. After an incubation of 150 min, the reaction was stopped, and ADP production detected with ADP-Glo kit according to manufacturer's indications. The assay was performed in 384-well format and was validated using a selection of reference compounds that was tested in 11 point concentration-response curve.
row,Compound,IC50
1,"Fc1ccc(Cl)cc1-c1nc2n(c1-c1cc3cnccc3s1)CCN2 [US20250270215, Example 14]",< 1 nM
2,"Cc1cccc(-c2nc3n(c2-c2ccc4nsnc4c2)CCN3)n1 [US20250270215, Example 17]",< 1 nM
3,"Cc1cccc(-c2nc3n(c2-c2ccc4nonc4c2)CCN3)n1 [US20250270215, Example 18]",< 1 nM

# Further lines, results first:
row,IC50,Compound
1,< 1 nM,"Fc1ccc(Cl)cc1-c1nc2n(c1-c1ccc3ncnn3c1)CCN2 [US20250270215, Example 2]"
2,< 1 nM,"Cc1csc(-c2nc3n(c2-c2ccc4ncnn4c2)CCN3)n1 [US20250270215, Example 3]"
3,< 1 nM,"Cc1cccc(-c2nc3n(c2-c2cc4cnccc4s2)CC(C(=O)O)N3)n1 (stereo not drawn) [US20250270215, Example 4]"
4,< 1 nM,"Clc1cccc(-c2nc3n(c2-c2ccc4ncnn4c2)CCN3)n1 [US20250270215, Example 12]"
5,< 1 nM,"Clc1cccc(-c2nc3n(c2-c2cc4cnccc4s2)CCN3)n1 [US20250270215, Example 13]"
